# Article PMC9721426, “Novel piperine-carboximidamide hybrids: design, synthesis, and antiproliferative activity via a multi-targeted inhibitory pathway” (Journal of Enzyme Inhibition and Medicinal Chemistry, 2022)
# How the values were obtained:
# BRAF^V600E = biological target: T1, BRAF^V600E (Mus musculus, UniProt P28028, V585E); experiment: BRAF V600E kinase assay; assay type: biochemical; settings: read-out: BRAF^V600E inhibition IC50 ± SEM
# T1 construct: Mouse full-length GST-tagged BRAFV600E; GST; purchased Invitrogen PV3849
# T1 sequence (P28028 whole entry V585E): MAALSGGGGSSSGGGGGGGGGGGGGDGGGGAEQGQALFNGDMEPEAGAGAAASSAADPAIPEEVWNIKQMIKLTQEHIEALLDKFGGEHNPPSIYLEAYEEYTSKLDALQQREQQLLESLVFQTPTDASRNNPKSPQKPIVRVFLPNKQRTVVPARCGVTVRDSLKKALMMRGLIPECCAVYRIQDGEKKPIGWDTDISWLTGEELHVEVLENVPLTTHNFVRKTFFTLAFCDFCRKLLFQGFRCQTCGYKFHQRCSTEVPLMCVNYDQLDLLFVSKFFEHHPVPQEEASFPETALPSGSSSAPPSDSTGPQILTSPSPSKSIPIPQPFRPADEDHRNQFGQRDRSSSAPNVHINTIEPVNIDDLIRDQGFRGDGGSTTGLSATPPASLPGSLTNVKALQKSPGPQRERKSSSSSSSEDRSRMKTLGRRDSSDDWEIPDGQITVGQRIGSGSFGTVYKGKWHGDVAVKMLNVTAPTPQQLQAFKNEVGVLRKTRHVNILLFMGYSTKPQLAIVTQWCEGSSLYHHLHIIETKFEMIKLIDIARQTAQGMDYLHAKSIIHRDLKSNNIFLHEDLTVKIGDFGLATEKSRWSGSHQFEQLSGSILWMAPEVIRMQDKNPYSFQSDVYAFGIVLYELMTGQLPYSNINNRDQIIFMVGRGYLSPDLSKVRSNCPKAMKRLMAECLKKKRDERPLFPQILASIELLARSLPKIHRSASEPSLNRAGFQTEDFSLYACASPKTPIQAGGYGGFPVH
# Procedure: An in vitro study was conducted to evaluate the anti-BRAF^V600E of VIc, VIf, VIg, VIi, and VIk[31]. […] An in vitro study[31] was conducted to evaluate the anti-BRAF^V600E of VIc, VIf, VIg, VIi, and Vik. See Appendix A.
# 4.2.1.4. BRAF kinase assay
# V600E mutant BRAF kinase assay was performed to investigate the activity of the most […]
# Mouse full-length GST-tagged BRAFV600E (7.5 ng, Invitrogen, PV3849) was pre-incubated with drug (1 µL) and assay dilution buffer (4 µL) for 60 min at 25 °C. In assay dilution buffer, a solution (5 µL) containing MgCl 2 (30 mM), ATP (200 µM), recombinant human full length (200 ng) […] N-terminal His-tagged MEK1 (Invitrogen) was added to start the assay, subsequent to incubation for 25 min at 25 °C. The assay was stopped using 5X protein denaturing buffer (LDS) solution (5 µL).
# To further denature the protein, heat (70° C) was applied for 5 min.
# NuPage gel plates (Invitrogen) were used to carry out electrophoresis (at 200 V). 10 µL of each reaction was loaded into the precast plates and electrophoresis was allowed to proceed. After completion of electrophoresis, the front part of the precast gel plate (holding hot ATP) was cut and afterw ards cast-off. The dried gel was developed using a […]
# that containing no inhibitor served as positive control. […]
# [1] = system: four human cancer cell lines (Panc-1, MCF-7, HT-29, A-549); experiment: Antiproliferative MTT assay, average (GI50) over the four cancer cell lines; assay type: cell-based; settings: Homo sapiens; average of IC50 versus A-549, MCF-7, Panc-1, HT-29
# Procedure: The average (GI50) versus the four cancer cell lines was chosen for ease of manipulation.
# The MTT assay was performed using various cell lines in accordance with previously reported procedures[28]^,[29] to investigate the antiproliferative potential of VIa-k. Refer to Appendix A. […]
# added (in 200 μL medium to yield a final concentration of 0.1% v/v) to the wells of plates. A single compound was designated with four wells followed by incubation of […]
# After incubation, medium was removed completely from the plates followed by addition of MTT (0.4 mg/mL in medium) to each well and subsequent incubation of plates for 3h. MTT (along with the medium) was removed and DMSO (150μL) was added to each well of the culture plates, followed by vortexing and subsequent measurement of absorbance (at 540 nm) using microplate reader. The data are shown as percentage inhibition of proliferation in comparison with controls containing 4.2.1.2. Assay for antiproliferative effect […]
# The percentage cytotoxicity of compounds was calculated using the following […]
# Where ATC= Absorbance of treated cells and AC= Absorbance of control. […]
# used as positive control in the assay. […]
SMILES,IC50 (BRAF^V600E) [nM],GI50 [1] [nM],melting point [°C]
N/C(=N/OC(=O)/C=C/C=C/c1ccc2c(c1)OCO2)c1ccc2c(c1)OCO2 [VIk],40 ± 4,35,
"NC(=NOC(=O)/C=C/C=C/c1ccc2c(c1)OCO2)c1ccc(Br)cc1 [VIc, N'-{[(2E,4E)-5-(2H-1,3-Benzodioxol-5-yl)penta-2,4-dienoyl]oxy}-4-bromobenzene-1-carboximidamide]",57 ± 6,50,159 to 161
"NC(=NOC(=O)/C=C/C=C/c1ccc2c(c1)OCO2)c1ccccc1Cl [VIf, N'-{[(2E,4E)-5-(2H-1,3-benzodioxol-5-yl)penta-2,4-dienoyl]oxy}-2-chlorobenzene-1-carboximidamide]",49 ± 5,44,165 to 167
